Source: PubChem BioAssay (NCI)
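How tested: cells in 96-well plates exposed to compound for 48 hours at five concentrations. Abbreviation: GI50, concentration required for 50% inhibition of growth. TGI: total growth inhibition.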

Tests used:
Assay in all cases: NCI-60 cell line screen, 48 h
RPMI-8226 leukemia = tested on: RPMI-8226 leukemia
SW-620 colon = tested on: SW-620 colon
SK-OV-3 ovarian = tested on: SK-OV-3 ovarian
TK-10 renal = tested on: TK-10 renal
LXFL 529 NSCLC = tested on: LXFL 529 NSCLC
DMS 273 small cell lung = tested on: DMS 273 small cell lung
NCI-H23 lung = tested on: NCI-H23 lung
U251 CNS = tested on: U251 CNS
SK-MEL-5 melanoma = tested on: SK-MEL-5 melanoma

Compound | TGI (RPMI-8226 leukemia) | TGI (SW-620 colon) | TGI (SK-OV-3 ovarian) | TGI (TK-10 renal) | TGI (LXFL 529 NSCLC) | TGI (DMS 273 small cell lung) | TGI (NCI-H23 lung) | TGI (U251 CNS) | TGI (SK-MEL-5 melanoma) | GI50 (SW-620 colon) | GI50 (TK-10 renal) | GI50 (NCI-H23 lung) | GI50 (U251 CNS) | GI50 (SK-MEL-5 melanoma)
Cn1cnc([N+](=O)[O-])c1SC1=NCCS1 | > 100 µM | > 100 µM | > 100 µM | > 100 µM | > 100 µM | > 100 µM | > 100 µM | > 100 µM | > 100 µM | – | – | – | – | –
O=C1CCCC(=O)C1=C(O)CCCCCCCCCCc1ccccc1 | > 100 µM | > 100 µM | 96.8 µM | > 100 µM | > 100 µM | > 100 µM | > 100 µM | > 100 µM | 49.5 µM | – | – | – | – | –
O=C1Cc2ccccc2N1c1c(Cl)cccc1Cl | 62.7 µM | > 100 µM | > 100 µM | > 100 µM | > 100 µM | – | > 100 µM | > 100 µM | > 100 µM | – | – | – | – | –
C#C[C@@]1(O)CCCC2=CC(=O)C[C@]21C | > 100 µM | > 100 µM | > 100 µM | > 100 µM | > 100 µM | – | > 100 µM | > 100 µM | > 100 µM | – | – | – | – | –
Oc1ccc2c3c1OC1C(=NN=C4CCC5(O)C6Cc7ccc(O)c8c7C5(CCN6CC5CC5)C4O8)CCC4(O)C(C2)N(CC2CC2)CCC314 (configuration not stated) | 88.7 µM | 41.6 µM | > 75.2 µM | > 70.2 µM | 43.5 µM | 63.9 µM | 99 µM | 32.1 µM | 34.8 µM | – | – | – | – | –
S=P1(c2ccccc2)Nc2ccc(Cl)cc2N1 (configuration not stated) | > 100 µM | > 100 µM | > 100 µM | > 100 µM | > 100 µM | > 100 µM | > 100 µM | > 100 µM | > 100 µM | – | – | – | – | –
COc1ccc(NC(=O)COC(=O)c2cccc3c(=O)c4ccccc4[nH]c23)cc1 | – | 60.1 µM | 67.4 µM | 42.1 µM | 43.3 µM | – | 32 µM | 44.8 µM | 30.1 µM | – | – | – | – | –
N#CCCN(CCC#N)c1ccc(/C=N\c2nc(-c3ccccc3)cs2)cc1 | > 100 µM | > 100 µM | > 100 µM | > 100 µM | > 100 µM | > 100 µM | > 100 µM | – | > 100 µM | – | – | – | – | –
CCCCCCCCCCCCCC(=O)OC(/C=C/C(C)C)C(O)C(O)C(OC)C(=O)NC1CCCCNC1=O (configuration not stated) | 15.9 µM | 4.46 µM | 10.4 µM | 11.6 µM | 4.88 µM | 2.81 µM | 5 µM | 4.3 µM | 5.25 µM | 4.4 µM | 8.26 µM | 8.82 µM | 2.47 µM | 6.53 µM
Cn1cnc([N+](=O)[O-])c1Sc1nc2cccnc2s1 | 60.4 µM | 26.6 µM | > 100 µM | 30.3 µM | 25 µM | 57.4 µM | – | 65.8 µM | 35.7 µM | – | – | – | – | –
CC1C=CC(C)C2(O)C(=O)NC(O)C12 (configuration not stated) | > 100 µM | > 100 µM | > 100 µM | > 100 µM | > 100 µM | > 100 µM | – | > 100 µM | > 100 µM | – | – | – | – | –
Cc1ccc(-c2nc3c(C(=O)NCCN(C)C)cccc3[nH]2)cc1 | – | 28.6 µM | 72.8 µM | 48.9 µM | – | 27.1 µM | 30.3 µM | 61.1 µM | 26.6 µM | – | – | – | – | –
N#CCc1ccc(/C(C#N)=C2/OC(=N)C(c3ccc(CC#N)cc3)C2=O)cc1 (configuration not stated) | > 100 µM | > 100 µM | > 100 µM | > 100 µM | > 100 µM | > 100 µM | > 100 µM | – | > 100 µM | – | – | – | – | –
